# Patent US10561629B2, “Food containing glycine and use thereof” (AJINOMOTO CO., INC., priority 2004, dated 2020)
# Where two headings read alike, the source gives them in different places.
# Tests used:
# [1] = 3 g 1 hr before bedtime
# Procedure: (§1) A double-blind crossover test aiming at confirmation of the effect of glycine on sleep was performed with 14 male adults (body weight 64-112.5 kg, average 81.2 kg) concerned about snoring and apnea condition during sleep. The test participants took glycine (granules containing citric acid and the like) in an amount equivalent to 3 g of glycine 1 hr before bedtime, and reduced maltose containing components other than glycine (citric acid and the like) and adjusted to an almost indistinguishable taste was used as a placebo.
# (1) For the evaluation of sleep condition, overnight polysomnography was used for the measurement.
# (§2) In addition, the sleep condition of the night before was examined on waking using the sleep questionnaire.
# [2] = Procedure: as §1, §2
# [3] = 3 g 30 min before bedtime, sleep limited to about 75%, next daytime, mean ± standard error
# Procedure: (§3) A single-blind crossover study aimed at confirmation of the effect of glycine on sleep was performed with 7 male adults (30s-40s, body weight 62-79 kg). The test participants took glycine (granule containing citric acid and the like) in an amount equivalent to 3 g of glycine 30 min before bedtime, and reduced maltose containing components other than glycine (citric acid and the like) and adjusted to an almost indistinguishable taste was used as a placebo. The sleep hours on the day of administration was limited to about 75% (5-6.5 hr) of comfortable sleep hours each test participant voluntarily notified, and a nap was prohibited until the end of the administration. For the test, glycine and placebo were each taken for 3 days with an interval of a 14-21 day non-intake period, totaling 4-5 weeks. Of the 3 days, the following investigation and measurement were performed at 10 o'clock, 14 o'clock and 18 o'clock of the next day of the first day of the intake.
# In addition, the p value is a statistical value showing the probability when the difference between glycine and placebo was hypothesized to be null. Particularly, this value of 0.05 or below is considered to indicate a significant difference.
# [4] = 3 g 30 min before bedtime, next daytime, mean ± standard error
# Procedure: as §3
# (2) To evaluate the cognitive and psychomotor function as a reflection of the quality of sleep, an operation efficiency test using a computer was performed. As a three kind discrimination response task, a task of responding to only one predetermined kind from randomly designed three kinds of graphics on the screen was given.
# [5] = for mental condition on waking: improved in comparison with placebo / mental condition on waking: no change in comparison with placebo / mental condition on waking: worsened in comparison with placebo / physical condition on waking: improved in comparison with placebo / physical condition on waking: no change in comparison with placebo / physical condition on waking: worsened in comparison with placebo: 3 g 1 hr before bedtime
# Procedure: A double-blind crossover test aiming at confirmation of the effect of glycine on sleep was performed with 15 female adults (20s-50s, body weight 46-58 kg). The test participants took glycine (granule containing citric acid and the like) in an amount equivalent to 3 g of glycine 1 hr before bedtime, and reduced maltose containing components other than glycine (citric acid and the like) and adjusted to an almost indistinguishable taste was used as a placebo. For the test, glycine and placebo were each taken for 4 days with an interval of a 3 day non-intake period, totaling 2 weeks.
# In the Table, the values of glycine and placebo show the test participant average of the points of evaluation in 8 levels in the sleep questionnaire “depth of sleep”. […] In addition, the p value is a statistical value showing the probability when the difference between glycine and placebo was hypothesized to be null. Particularly, this value of 0.05 or below is considered to indicate a significant difference.
# (4) At the end of each 1 week test period, a question was asked about the soundness of sleep.
# [6] = participants 32 years old or older (6)
# [7] = participants with PSQI not less than 9 (7)
# [8] = SAM lassitude check list, 4-day total, difference by 1 point or more vs placebo, 15 participants
# [9] = SAM lassitude check list, 4-day total, difference by 4 points or more vs placebo, 15 participants
# [10] = out of 15 participants, end of each 1 week test period
# [11] = participants 32 years old or older
compound,measurement,setting,value
"NCC(=O)O [glycine, Glycine]",slow wave sleep (%) in sleep onset initial stage,"[1]; early stage (1 hr) of sleep onset, placebo 6.4, p value 0.020",12.0%
same,lights-out - sleep onset,"[1]; placebo 16.3, p value 0.322",13.3 min
same,lights-out - slow wave sleep,"[1]; placebo 103.4, p value 0.042",52.2 min
same,"OSA sleep questionnaire point value, time of dozing off","[2]; participant average of 4 levels (0, 11, 19, 30 points), higher = shorter dozing, placebo 19.6",24.9
same,"OSA sleep questionnaire point value, depth of sleep","[2]; participant average of 4 levels (0, 11, 21, 32 points), higher = deeper, placebo 12.3",16.7
same,lassitude (SAM lassitude check list total points),"[3]; placebo 9.0 ± 0.68, p value 0.025",7.0 ± 0.74
same,sleepiness (distance from left end of 100 mm line),"[3]; placebo 50.7 ± 4.39, p value 0.042",38.1 ± 4.47 mm
same,Response time,"[4]; placebo 0.393 ± 0.025, p value 0.028",0.366 ± 0.021 s
same,Lapse (number of response where reaction time was 500 msec or longer),"[4]; placebo 2.67 ± 3.06, p value 0.017",1.19 ± 1.69 times
same,percentage of correct answer,"[4]; placebo 95.6 ± 5.20, p value 0.043",98.4 ± 1.16%
same,mental condition on waking: improved in comparison with placebo,[5]; [6],5 person
same,mental condition on waking: no change in comparison with placebo,[5]; [6],1 person
same,mental condition on waking: worsened in comparison with placebo,[5]; [6],0 person
same,physical condition on waking: improved in comparison with placebo,[5]; [6],5 person
same,physical condition on waking: no change in comparison with placebo,[5]; [6],1 person
same,physical condition on waking: worsened in comparison with placebo,[5]; [6],0 person
same,mental condition on waking: improved in comparison with placebo,[5]; [7],5 person
same,mental condition on waking: no change in comparison with placebo,[5]; [7],2 person
same,mental condition on waking: worsened in comparison with placebo,[5]; [7],0 person
same,physical condition on waking: improved in comparison with placebo,[5]; [7],5 person
same,physical condition on waking: no change in comparison with placebo,[5]; [7],1 person
same,physical condition on waking: worsened in comparison with placebo,[5]; [7],1 person
same,"Increase of lassitude on waking, effective criterion",[5]; [8],3 participants
same,"No change of lassitude on waking, effective criterion",[5]; [8],1 participants
same,"Reduction of lassitude on waking, effective",[5]; [8],11 participants
same,"Increase of lassitude on waking, remarkably effective criterion",[5]; [9],2 participants
same,"No change of lassitude on waking, remarkably effective criterion",[5]; [9],6 participants
same,"Reduction of lassitude on waking, remarkably effective",[5]; [9],7 participants
same,"Sleep questionnaire ""depth of sleep""","[5]; average points, 8 levels, participants 32 years old or older, placebo 4.13, P value 0.042",4.88
same,soundness of sleep: participants answering that both were the same,[5]; [10],8 participants
same,soundness of sleep: participants answering the week of glycine intake was fine,[5]; [10],6 participants
same,soundness of sleep: participants answering the week of placebo intake was fine,[5]; [10],one
same,Effect of clearing head the next morning: effective in comparison with placebo,[5]; [11],5 person
same,Effect of clearing head the next morning: no change in comparison with placebo,[5]; [11],1 person
same,Effect of clearing head the next morning: worsened in comparison with placebo,[5]; [11],0 person
